Experimental data from patent US8309068B2, “Isolated polypeptides and methods of improving muscle strength” (Myostin Therapeutics Pty Ltd., priority 2006, dated 2012).
Where no end group is shown, it is not given here.

Key:
[1] = test system: Sixteen month old mice; experiment: In vivo trial in sixteen month old mice (sarcopenic muscle, grip strength)
Protocol: (§1) An animal trial was conducted to assess the effects of myostatin antagonist 300 in improving muscle function. Sixteen month old mice were divided into two groups of ten. While the control group received saline subcutaneous (SC) injections, the other group received myostatin antagonist 300 SC at 6 μg/gram of BW three times a week for six weeks. The functional improvement of sarcopenic muscle was assessed by measuring grip strength of mice at the end of trial. Grip strength was measured in Newtons.

[2] = test system: satellite cells; experiment: Satellite cell activation on single fibres from mice treated in vivo; conditions: 6 μg/g BW SC three times a week for six weeks; end of treatment
Protocol: To test the effect of short term myostatin antagonist treatment on satellite cell activation, single fibres were isolated from mice from each treatment group (as described in example 4, below), and cultured as described above. Satellite cell activation was investigated using anti-PCNA antibodies as described.
as §1

[3] = test system: bone marrow derived macrophages; experiment: Migration of bone marrow derived macrophages from mice treated in vivo; conditions: 6 μg/g BW SC three times a week for six weeks; ZAMS 11%, 22% or 33%; vs saline
Source text: For chemotaxis analysis of macrophages bone marrow was isolated from saline treated (control) and myostatin antagonist 300 treated mice (as described in example 4, below), and plated at 5×10^6 cells/plate in DMEM 10% FBS plus 10% L929 conditioned medium (containing CSF-1) for 5 days to induce macrophage differentiation. The macrophages were then harvested and used in the assay. Three concentrations of DMEM containing Zymosan-activated mouse serum (ZAMS) was used, 33% (optimum chemo-attractant concentration), 22% and 11% (suboptimal chemo-attractant concentrations). Plain DMEM was used as negative control. On a 24-well plate, the bottom wells were filled with test or control media. Seventy-five thousand cells were added to the top wells containing polyethylene terephthalate (PET) 0.8 μm membranes. The plate was incubated for 4h at 37° C., 5% CO2. […] The membrane was then fixed, stained in Gill's hematoxylin and wet mounted on slides. Migrated cells were counted on four representative fields per membrane and the average number plotted.
An animal trial was conducted to assess the effects of myostatin antagonist 300 in improving muscle function. Sixteen month old mice were divided into two groups of ten. […] The functional improvement of sarcopenic muscle was assessed by measuring grip strength of mice at the end of trial. Grip strength was measured in Newtons.

[4] = test system: Wild type mice; experiment: In vivo sarcopenia trial, 10 month administration in wild type mice
Protocol: Wild type mice (32 mice approx. 4-5 months of age) were injected subcutaneously fortnightly or monthly with 300 (6 μg/g body weight) or saline for a period of 10 month. Muscle strength was assessed using a grip strength apparatus (MK-380S, Muromachi; Tokyo, Japan) at the end of the trial. The maximum force exerted by a mouse while being pulled backward by the tail is recorded in Newtons. The mean of three grip tests for each mouse was calculated and the mean maximal force per group was determined.

[5] = test system: C2C12 myoblasts; experiment: C2C12 myoblast proliferation assay (methylene blue endpoint); format: cell-based, murine
Protocol: A polypeptide of the invention, or a fragment, variant or derivative thereof has the biological function of antagonising myostatin activity. To determine whether a polypeptide of the invention, or a fragment, variant or derivative thereof, is able to antagonise myostatin activity, such activity can be tested by growing myoblasts in the presence or absence (control) of a candidate polypeptide of the invention. […]
The myoblast proliferation assay was carried out in uncoated 96-well microtitre plates. C2C12 cultures were seeded at 1000 cells/well. Following a 16-hour attachment period, test media containing either recombinant wild type myostatin or different myostatin antagonists were added and cells were incubated for a further 48 or 72 hour period. For competition assay, wild type myostatin was competed with different concentrations of myostatin antagonists prior to the addition into the media. After the incubation period, proliferation was assessed using methylene blue photometric endpoint assay as previously described (Thomas et al, 2000).

[6] = test system: TA muscle burn in C56b1/6 mice; experiment: In vivo muscle burn trial
Protocol: C56b1/6 mice at ˜12 months of age were anesthetized and a red-hot metal rod (1.5 mm wide, 7 mm long) was applied to TA muscle for 5 sec. The mice were injected subcutaneously with saline or 300 myostatin antagonists at 6 μg/g of body weight at day 1, 3, 5, 7 and 10 after injury. The mice were allowed to heal for 5, 7, 14, 21, 28, 35 and 46 days, after which they were culled and the muscle processed for histology.
Histological muscle samples were covered in OCT and frozen in isopentane cooled in liquid nitrogen. The sections were cut in a cryostat at 10 μm thickness and stained with H&E and Van Gieson. Regeneration markers such as total number of centrally formed nuclei (CFN) and number of fibres with CNF were analysed for each day following the different treatments, and the values plotted.

[7] = test system: Human skeletal muscle myoblasts; experiment: Human myoblast proliferation assay; format: cell-based; conditions: 1, 5 or 10 μg/ml; 144 hours
Protocol: Human skeletal muscle myoblasts (Cambrex, USA) or primary ovine myoblasts were grown in Dulbecco's Modified Eagle Medium containing 20% FBS, 10% Horse serum and 0.5% chicken embryo extract according to the standard techniques. The myoblast proliferation assay was carried out in uncoated 96-well microtitre plates. Cell cultures were seeded at 2000 cells/well. Following a 24-hour attachment period, test media supplemented with 5% FCS containing either buffer as a control or different myostatin antagonists (300, 310 or 320) were added at 1, 5 and 10 μg/ml and cells were incubated for a further 144 hour period (for human cells) or 48 hours (for ovine cells). After the incubation period, proliferation was assessed using methylene blue photometric endpoint assay as previously described (Thomas et al, 2000).

[8] = test system: skin burn in C56b1/6 mice; experiment: In vivo skin burn trial (hydroxyproline assay); conditions: 6 μg/g SC day 1, 3, 5, 7 and 10, vs control
Protocol: C56b1/6 mice at ˜12 months of age were anesthetized, the skin at the back of the neck was shaved, and a red-hot metal rod (1.5 mm wide, 7 mm long) was applied to the exposed skin of the mice for 5 sec. The mice were injected subcutaneously with either saline or 300 myostatin antagonist at 6 μg/g of body weight at day 1, 3, 5, 7 and 10 after injury. The mice were allowed to heal for 5, 7, 14, 21, 28, 35 and 46 days, after which they were culled and the skin frozen in liquid nitrogen for hydroxyproline analysis.
After a burn injury in skin a hydroxyproline assay was performed to determine the amount of collagen deposits on the wound area. Hydroxyproline is present in collagen, and gives it a stable helical conformation. Therefore, measuring the amount of hydroxyproline present in a given tissue will determine the amount of collagen present in the tissue.

myostatin antagonist 300: recombinant peptide, amino acids 267-300 of bovine myostatin, with N terminal and C terminal tag (SEQ ID NO: 6) (DFGLDCDEHSTESRCCRYPLTVDFEAFGWDWIIA; cysteine pairing not given here; also: N- and C-terminal tags; listed as Homo sapiens)
body fat compared with saline treated controls ([1]; 16 month old mice, 6 week treatment, observation, result not shown): reduced the amount of subcutaneous fat including the inguinal fat pad
average percent change in grip strength ([1]; aged mice, 6 μg/g BW SC three times a week, six week period): highly significant increase
grip strength at the beginning and end of the trial ([1]; aged mice, day 0 and day 42, 6 μg/g BW SC three times a week): significantly increased
satellite cell activation in fibres isolated from treated mice [2]: increase observed
migratory ability of macrophages isolated from treated mice [3]: significantly increased
increase of muscle function, fortnightly compared with monthly application ([4]; 6 μg/g SC fortnightly for 10 month, data not shown): equally effective
grip strength over saline control at the end of the trial ([4]; 6 μg/g SC monthly for 10 month, p<0.01): significant increase
proliferation capacity of myoblasts compared to control ([5]; 1 μg/ml or 5 μg/ml over 48 or 72 hours): significantly enhanced
concentration at which the highest myoblast proliferation rate was observed ([5]; 48 hour time point): 5 µg/mL
H&E staining of the muscle ([6]; 21 days after burn injury): darker stained fibres, many with centrally formed nuclei
degree of fibrosis (van Gieson staining) ([6]; D21 after injury): higher degree of fibrosis in the control group
number of fibres with centrally formed nuclei (CFN) ([6]; after muscle burn, compared to saline): increased number
percentage of damage muscle area, treatment vs control ([6]; from D28 onwards, data not shown): no difference
numbers of centrally formed nuclei (CFN) ([6]; muscle burn, by D21, maintained up to day 46, vs control): significantly higher
proliferation capacity of human myoblasts compared to control [7]: significantly enhanced
collagen on the wound area (hydroxyproline assay) [8]: tendency towards lower level of collagen
